# Source: patent publication US12509462B2, “3-(phenylsulfonyl)-[1,2,3]triazolo[1,5A]quinazolin-5(4H)-one derivatives” (BIOVERSYS AG, priority 2018, dated 2025)
# Like-named read-outs stand apart in the source and are kept apart here.
# What was measured:
# [1] = system: MRSA (USA300 isolate); assay: Hemolysis Assay I (exotoxin-mediated lysis of rabbit red blood cells by culture supernatant); type: cell-based, Staphylococcus aureus; conditions: Staphylococcus aureus, Erythrocyte, 30/10/3.3/1.1/0.37 μM compound, values at OD600 of 0.75
# [2] = system: MRSA; assay: MIC by broth microdilution in CA-MHB (CLSI); conditions: Staphylococcus aureus, 18 h, read-out: MIC on MRSA
# Method: Minimal inhibitory concentrations (MIC) were determined by broth microdilution method in cation-adjusted Mueller-Hinton (CA-MHB) broth according to the CLSI guideline. From an overnight culture plate, cells were resuspended in 0.9% (w/v) saline solution and bacterial inoculum was prepared in CA-MHB with 5×10^5 CFU/ml. Compounds were two-fold serially diluted in CA-MHB and 10 μL of this 10× concentrated samples were added into the 96-well plate. 90 μL of bacterial suspension was finally added to the compounds. Plates were covered and incubated without shaking at 35° C. for 18 hours. Every experiment contained an antibiotic as quality control. MIC was determined visually as the lowest concentration of a compound that prevents visible growth of the bacteria and the plates were scanned for documentation.
# [3] = system: RNAIII; type: cell-based, Staphylococcus aureus; conditions: 10 μM compound, two hours, MRSA (USA300 isolate), normalized to rpoD
# [4] = system: psmα; type: cell-based, Staphylococcus aureus
# [5] = system: HepG2; conditions: 48 h
# [6] = system: Staphylococcus aureus MRSA strain (USA300 isolate); assay: Hemolysis Assay II (exotoxin-mediated lysis of rabbit red blood cells by culture filtrate); type: cell-based; conditions: Erythrocyte; for minimal effective concentration / IC95: 18 h; for minimal effective concentration: absorbance <2× the average of the complete inhibition control, read-out: Hemolysis assay II MEC (minimal effective concentration); for IC95: read-out: Hemolysis assay II IC95; for IC50: 18 h culture in CA-MHB, rabbit red blood cells
smiles,measurement,setting,value
"Cc1ccc(S(=O)(=O)c2nnn3c2[nH]c(=O)c2ccc(Cl)cc23)c(C)c1 [Compound 3, 8-chloro-3-(2,4-dimethylphenyl)sulfonyl-4H-triazolo[1,5-a]quinazolin-5-one]",IC50,[1],5 µM
same,MIC,[2],≥ 100 µM
same,Downregulation of RNAIII expression at 10 μM,[3],++ (++ downregulation>100-fold (2 log10))
same,Downregulation of psmα expression at 10 μM,[4],++ (++ downregulation>100-fold (2 log10))
same,LD50 HepG2,[5]; human,>=100 μM
same,minimal effective concentration,[6],4 µg/mL
same,IC95,[6],3.45 µg/mL
same,IC50,[6],1.65 µg/mL
"Cc1ccc(S(=O)(=O)c2nnn3c2[nH]c(=O)c2ccccc23)c(Cl)c1 [Compound 35, 3-(2-chloro-4-methyl-phenyl)sulfonyl-4H-triazolo[1,5-a]quinazolin-5-one]",IC50,[1],1.5 µM
same,MIC,[2],≥ 100 µM
same,LD50 HepG2,[5]; human,>=100 μM
same,minimal effective concentration,[6],4 µg/mL
same,IC95,[6],3.7 µg/mL
same,IC50,[6],1.25 µg/mL
"Cc1ccc(S(=O)(=O)c2nnn3c2[nH]c(=O)c2ccc(O)cc23)c(C)c1 [Compound 36, 3-(2,4-dimethylphenyl)sulfonyl-8-hydroxy-4H-triazolo[1,5-a]quinazolin-5-one]",IC50,[1],2.8 µM
same,MIC,[2],≥ 100 µM
same,LD50 HepG2,[5]; human,>=100 μM
same,minimal effective concentration,[6],4 µg/mL
same,IC95,[6],4.5 µg/mL
same,IC50,[6],1.7 µg/mL
"Cc1ccc(S(=O)(=O)c2nnn3c2[nH]c(=O)c2ccccc23)c(Br)c1 [Compound 37, 3-(2-Bromo-4-methyl-phenyl)sulfonyl-4H-triazolo[1,5-a]quinazolin-5-one]",IC50,[1],1.5 µM
same,MIC,[2],≥ 100 µM
same,LD50 HepG2,[5]; human,>=100 μM
same,minimal effective concentration,[6],4 µg/mL
same,IC95,[6],3.65 µg/mL
same,IC50,[6],1.25 µg/mL
"Cc1ccc(S(=O)(=O)c2nnn3c2[nH]c(=O)c2ccc(Br)cc23)c(C)c1 [Compound 38, 8-bromo-3-(2,4-dimethylphenyl)sulfonyl-4H-triazolo[1,5-a]quinazolin-5-one]",MIC,[2],50 µM
same,LD50 HepG2,[5]; human,>=100 μM
same,minimal effective concentration,[6],4 µg/mL
same,IC95,[6],4.6 µg/mL
same,IC50,[6],1.4 µg/mL
"COc1cccc2c1c(=O)[nH]c1c(S(=O)(=O)c3ccc(C)cc3C)nnn12 [Compound 39, 3-(2,4-dimethylphenyl)sulfonyl-6-methoxy-4H-triazolo[1,5-a]quinazolin-5-one]",IC50,[1],0.8 µM
same,MIC,[2],≥ 100 µM
same,LD50 HepG2,[5]; human,>=100 μM
same,minimal effective concentration,[6],4 µg/mL
same,IC95,[6],3.25 µg/mL
same,IC50,[6],0.8 µg/mL
"COCCCOc1ccc2c(=O)[nH]c3c(S(=O)(=O)c4ccc(C)cc4C)nnn3c2c1 [Compound 40, 3-(2,4-dimethylphenyl)sulfonyl-8-(3-methoxypropoxy)-4H-triazolo[1,5-a]quinazolin-5-one]",MIC,[2],≥ 100 µM
same,LD50 HepG2,[5]; human,>=100 μM
same,minimal effective concentration,[6],3 µg/mL
same,IC95,[6],4.4 µg/mL
same,IC50,[6],1.05 µg/mL
"Cc1ccc(S(=O)(=O)c2nnn3c2[nH]c(=O)c2ccc(OCCCC#N)cc23)c(C)c1 [Compound 41, 4-[[3-(2,4-dimethylphenyl)sulfonyl-5-oxo-4H-triazolo[1,5-a]quinazolin-8-yl]oxy]butanenitrile]",MIC,[2],≥ 100 µM
same,LD50 HepG2,[5]; human,>=100 μM
same,minimal effective concentration,[6],2 µg/mL
same,IC95,[6],2.5 µg/mL
same,IC50,[6],0.65 µg/mL
"Cc1ccc(S(=O)(=O)c2nnn3c2[nH]c(=O)c2ccc(I)cc23)c(C)c1 [Compound 42, 3-(2,4-dimethylphenyl)sulfonyl-8-iodo-4H-triazolo[1,5-a]quinazolin-5-one]",MIC,[2],≥ 100 µM
same,LD50 HepG2,[5]; human,>=100 μM
same,minimal effective concentration,[6],6 µg/mL
same,IC95,[6],10.1 µg/mL
same,IC50,[6],2.05 µg/mL
"COCCOc1ccc2c(=O)[nH]c3c(S(=O)(=O)c4ccc(C)cc4C)nnn3c2c1 [Compound 43, 3-(2,4-dimethylphenyl)sulfonyl-8-(2-methoxyethoxy)-4H-triazolo[1,5-a]quinazolin-5-one]",MIC,[2],≥ 100 µM
same,LD50 HepG2,[5]; human,>=100 μM
same,minimal effective concentration,[6],2 µg/mL
same,IC95,[6],3.5 µg/mL
same,IC50,[6],0.8 µg/mL
"Cc1cc(Br)c(S(=O)(=O)c2nnn3c2[nH]c(=O)c2ccccc23)cc1C [Compound 44, 3-(2-bromo-4,5-dimethyl-phenyl)sulfonyl-4H-triazolo[1,5-a]quinazolin-5-one]",MIC,[2],≥ 100 µM
same,LD50 HepG2,[5]; human,>=100 μM
same,minimal effective concentration,[6],6 µg/mL
same,IC95,[6],7.2 µg/mL
same,IC50,[6],1.85 µg/mL
"Cc1ccc(S(=O)(=O)c2nnn3c2[nH]c(=O)c2ccc(N4CCC4)cc23)c(C)c1 [Compound 45, 8-(azetidin-1-yl)-3-(2,4-dimethylphenyl)sulfonyl-4H-triazolo[1,5-a]quinazolin-5-one]",MIC,[2],≥ 100 µM
same,LD50 HepG2,"[5]; compounds 0.8-100 μM, SEAP readout",>=100 μM
same,minimal effective concentration,[6],6 µg/mL
same,IC95,[6],8.85 µg/mL
same,IC50,[6],1.7 µg/mL
"Cc1ccc(S(=O)(=O)c2nnn3c2[nH]c(=O)c2cc(O)ccc23)c(C)c1 [Compound 46, 3-(2,4-dimethylphenyl)sulfonyl-7-hydroxy-4H-triazolo[1,5-a]quinazolin-5-one]",MIC,[2],≥ 100 µM
same,LD50 HepG2,[5]; human,>=100 μM
same,minimal effective concentration,[6],1 µg/mL
same,IC95,[6],1.4 µg/mL
same,IC50,[6],0.4 µg/mL
"COc1cccc2c(=O)[nH]c3c(S(=O)(=O)c4ccc(C)cc4C)nnn3c12 [Compound 47, 3-(2,4-dimethylphenyl)sulfonyl-9-methoxy-4H-triazolo[1,5-a]quinazolin-5-one]",MIC,[2],≥ 100 µM
same,LD50 HepG2,[5]; human,>=100 μM
same,minimal effective concentration,[6],2 µg/mL
same,IC95,[6],1.95 µg/mL
same,IC50,[6],0.5 µg/mL
"Cc1ccc(S(=O)(=O)c2nnn3c2[nH]c(=O)c2ccc(NCCN4CCOCC4)cc23)c(C)c1 [Compound 48, 3-(2,4-dimethylphenyl)sulfonyl-8-(2-morpholinoethylamino)-4H-triazolo[1,5-a]quinazolin-5-one]",MIC,[2],50 µM
same,LD50 HepG2,[5]; human,50 µM
same,minimal effective concentration,[6],8 µg/mL
same,IC95,[6],7 µg/mL
same,IC50,[6],1.6 µg/mL
"Cc1ccc(S(=O)(=O)c2nnn3c2[nH]c(=O)c2ccc(NC4CCOCC4)cc23)c(C)c1 [Compound 49, 3-(2,4-dimethylphenyl)sulfonyl-8-(tetrahydropyran-4-ylamino)-4H-triazolo[1,5-a]quinazolin-5-one]",MIC,[2],≥ 100 µM
same,LD50 HepG2,[5]; human,50 µM
same,minimal effective concentration,[6],3 µg/mL
same,IC95,[6],4.5 µg/mL
same,IC50,[6],0.75 µg/mL
"Cc1ccc(S(=O)(=O)c2nnn3c2[nH]c(=O)c2cccc(O)c23)c(C)c1 [Compound 50, 3-(2,4-dimethylphenyl)sulfonyl-9-hydroxy-4H-triazolo[1,5-a]quinazolin-5-one]",MIC,[2],≥ 100 µM
same,LD50 HepG2,[5]; human,>=100 μM
same,minimal effective concentration,[6],3 µg/mL
same,IC95,[6],3.75 µg/mL
same,IC50,[6],1.05 µg/mL
"Cc1cc(C)c(S(=O)(=O)c2nnn3c2[nH]c(=O)c2ccccc23)c(Cl)c1 [Compound 51, 3-(2-chloro-4,6-dimethyl-phenyl)sulfonyl-4H-triazolo[1,5-a]quinazolin-5-one]",MIC,[2],≥ 100 µM
same,LD50 HepG2,[5]; human,>=100 μM
same,minimal effective concentration,[6],6 µg/mL
same,IC95,[6],5.25 µg/mL
same,IC50,[6],1.9 µg/mL
"Cc1cc(C)c(S(=O)(=O)c2nnn3c2[nH]c(=O)c2ccccc23)c(Br)c1 [Compound 52, 3-(2-bromo-4,6-dimethyl-phenyl)sulfonyl-4H-triazolo[1,5-a]quinazolin-5-one]",MIC,[2],≥ 100 µM
same,LD50 HepG2,[5]; human,>=100 μM
same,minimal effective concentration,[6],6 µg/mL
same,IC95,[6],6.1 µg/mL
same,IC50,[6],1.95 µg/mL
"Cc1ccc(S(=O)(=O)c2nnn3c2[nH]c(=O)c2ccc(OCCO)cc23)c(C)c1 [Compound 53, 3-(2,4-dimethylphenyl)sulfonyl-8-(2-hydroxyethoxy)-4H-triazolo[1,5-a]quinazolin-5-one]",MIC,[2],≥ 100 µM
same,LD50 HepG2,[5]; human,>=100 μM
same,minimal effective concentration,[6],2 µg/mL
same,IC95,[6],2.2 µg/mL
same,IC50,[6],0.7 µg/mL
"COC(=O)CCCOc1ccc2c(=O)[nH]c3c(S(=O)(=O)c4ccc(C)cc4C)nnn3c2c1 [Compound 55, methyl 4-[[3-(2,4-dimethylphenyl)sulfonyl-5-oxo-4H-triazolo[1,5-a]quinazolin-8-yl]oxy]butanoate]",MIC,[2],≥ 100 µM
same,LD50 HepG2,[5]; human,>=100 μM
same,minimal effective concentration,[6],3 µg/mL
same,IC95,[6],2.45 µg/mL
same,IC50,[6],1 µg/mL
"COCCOc1cc2c(cc1O)c(=O)[nH]c1c(S(=O)(=O)c3ccc(C)cc3C)nnn12 [Compound 58, 3-(2,4-dimethylphenyl)sulfonyl-7-hydroxy-8-(2-methoxyethoxy)-4H-triazolo[1,5-a]quinazolin-5-one]",MIC,[2],≥ 100 µM
same,LD50 HepG2,[5]; human,>=100 μM
same,minimal effective concentration,[6],4 µg/mL
same,IC95,[6],4.1 µg/mL
same,IC50,[6],0.9 µg/mL
"COCCOCCOCCOc1ccc2c(=O)[nH]c3c(S(=O)(=O)c4ccc(C)cc4C)nnn3c2c1 [Compound 59, 3-(2,4-dimethylphenyl)sulfonyl-8-[2-[2-(2-methoxyethoxy)ethoxy]ethoxy]-4H-triazolo[1,5-a]quinazolin-5-one]",MIC,[2],≥ 100 µM
same,LD50 HepG2,[5]; human,>=100 μM
same,minimal effective concentration,[6],8 µg/mL
same,IC95,[6],6.5 µg/mL
same,IC50,[6],2.6 µg/mL
"Cc1ccc(S(=O)(=O)c2nnn3c2[nH]c(=O)c2ccc(OCC4COC(C)(C)O4)cc23)c(C)c1 (stereo not shown) [Compound 60, 8-[(2,2-dimethyl-1,3-dioxolan-4-yl)methoxy]-3-(2,4-dimethylphenyl)sulfonyl-4H-triazolo[1,5-a]quinazolin-5-one]",MIC,[2],≥ 100 µM
same,LD50 HepG2,[5]; human,>=100 μM
same,minimal effective concentration,[6],3 µg/mL
same,IC95,[6],3.05 µg/mL
same,IC50,[6],1 µg/mL
